Residue numbers refer to the chain shown, from its start.
Tests used:
Type in all cases: cell-based
TMEM16A [1] = target: T1, TMEM16A (Mus musculus, UniProt Q8BHY3, K603A); experiment: whole-cell patch clamp of mutant channel in HEK293T cells, […] TF; conditions: HEK-293T
T1 construct: gene Ano1; mouse TMEM16A (NM_178642.5)
T1 sequence (Q8BHY3 1-960 K603A): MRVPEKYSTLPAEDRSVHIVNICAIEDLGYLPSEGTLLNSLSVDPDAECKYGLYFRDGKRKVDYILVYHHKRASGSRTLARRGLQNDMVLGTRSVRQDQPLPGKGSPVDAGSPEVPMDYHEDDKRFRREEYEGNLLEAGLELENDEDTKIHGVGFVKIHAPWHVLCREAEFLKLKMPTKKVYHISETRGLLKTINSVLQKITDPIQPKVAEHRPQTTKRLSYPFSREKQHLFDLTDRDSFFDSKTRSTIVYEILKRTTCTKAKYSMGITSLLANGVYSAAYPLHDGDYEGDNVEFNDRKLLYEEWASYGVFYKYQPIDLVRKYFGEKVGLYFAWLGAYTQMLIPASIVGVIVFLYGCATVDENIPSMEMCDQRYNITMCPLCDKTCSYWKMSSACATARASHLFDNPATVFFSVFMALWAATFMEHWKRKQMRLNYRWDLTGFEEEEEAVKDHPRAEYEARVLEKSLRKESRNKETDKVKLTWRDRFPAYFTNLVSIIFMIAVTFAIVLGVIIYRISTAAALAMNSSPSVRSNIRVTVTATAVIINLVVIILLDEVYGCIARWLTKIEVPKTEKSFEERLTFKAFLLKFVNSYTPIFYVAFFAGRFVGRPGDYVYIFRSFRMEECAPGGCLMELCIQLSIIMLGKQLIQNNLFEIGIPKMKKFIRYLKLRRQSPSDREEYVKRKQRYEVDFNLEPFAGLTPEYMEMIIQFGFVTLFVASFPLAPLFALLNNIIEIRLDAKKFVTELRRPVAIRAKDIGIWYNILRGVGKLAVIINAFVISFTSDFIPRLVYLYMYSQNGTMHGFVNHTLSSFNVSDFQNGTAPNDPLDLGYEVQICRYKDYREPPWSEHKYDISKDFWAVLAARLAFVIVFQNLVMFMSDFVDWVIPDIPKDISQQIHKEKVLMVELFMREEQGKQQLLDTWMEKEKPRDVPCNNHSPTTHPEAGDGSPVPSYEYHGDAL

TMEM16A [2] = target: T2, TMEM16A (Mus musculus, UniProt Q8BHY3, R535A); experiment: as above; conditions: HEK-293T
T2 construct: gene Ano1; mouse TMEM16A (NM_178642.5)
T2 sequence (Q8BHY3 1-960 R535A): T1 sequence (Q8BHY3 1-960 K603A) with R535A, A603K

TMEM16A [3] = target: T3, TMEM16A (Mus musculus, UniProt Q8BHY3); experiment: whole-cell patch clamp, recombinant channel in HEK293T cells; supported by mutagenesis
T3 construct: gene Ano1; mouse TMEM16A (NM_178642.5)
T3 sequence (Q8BHY3 1-960): T1 sequence (Q8BHY3 1-960 K603A) with A603K

TMEM16A [4] = target: T4, TMEM16A (Mus musculus, UniProt Q8BHY3, T539A); experiment: whole-cell patch clamp of mutant channel in HEK293T cells, […] TF; conditions: HEK-293T
T4 construct: gene Ano1; mouse TMEM16A (NM_178642.5)
T4 sequence (Q8BHY3 1-960 T539A): T1 sequence (Q8BHY3 1-960 K603A) with T539A, A603K

inhibition at 10 µM (TMEM16A [1]): 54% | inhibition at 10 µM (TMEM16A [2]): 71% | inhibition at 10 µM (TMEM16A [4]): 51%
Compound: O=c1c(O)cc([C@H]2Oc3cc(O)cc(O)c3C[C@H]2O)cc2c([C@H]3Oc4cc(O)cc(O)c4C[C@H]3O)cc(O)c(O)c12 [TF, theaflavin]
IC50 (TMEM16A [3]): 0.75 ± 0.13 µM
